Test system: obsessive-compulsive symptoms
Test: Treatment of two patients having obsessive-compulsive symptoms with deramciclane
Type: in vivo
Conditions: one 15 mg tablet twice daily (30 mg/day), 8 week treatment period
Protocol: The efficacy of deramciclane in the treatment of OCD, is illustrated with two patients having obsessive-compulsive symptoms. These patients received one 15 mg tablet of deramciclane twice daily (=30 mg/day) for an eight-week active treatment period.

CN(C)CCO[C@]1(c2ccccc2)C[C@H]2CC[C@]1(C)C2(C)C [deramciclane, (1R,2S,4R)-(−)-2-phenyl 2-(dimethylaminoethoxy)-1,7,7-trimethyl-bicyclo[2.2.1]heptane]
obsessive-compulsive symptoms as assessed by the responsible physician: reduced in a clinically significant way

From patent US6335372B1, “Treatment of obsessive compulsive disorder” (Orion Corporation, priority 2000, dated 2002)
